# Where a name gives a salt, the structure may show the parent alone. Read-outs that look alike come from different tables or passages of the source.
# How the values were obtained:
# [1] = tested on: Sclerotinia homoeocarpa; assay: Broth protocol: control of dollar spot fungus with modified chlorins; assay type: cell-based; details: Clarireedia homoeocarpa
# Protocol: Broth protocol: control of dollar spot fungus (Sclerotinia homoeocarpa) with modified chlorins was assessed. Treatments were prepared in Phosphate Buffered Saline (PBS) in 24 well plates (in duplicates for light vs. dark incubation) at desired concentrations. Then, a 5 mm diameter plug of a Sclerotinia homoeocarpa isolate (3 isolates total tested) was inoculated into the PBS and incubated at 21° C. in the dark for 2 hours. After 2 hours, one of the 24 well plates (with isolates in triplicate) was left in the dark and one 24 well plate was placed under illumination for 1 hour (all at 21° C.). Following illumination, fungal plugs were removed from PBS, blotted dry on sterile filter paper and transferred to non-amended Potato Dextrose Agar (PDA). Radial growth of the fungus was monitored daily until the growth of S. homoeocarpa reached the edge of the Petri-dish. Illumination was provided by LED lights emitting about 1000 μmol/m2/s photosynthetically active radiation (PAR).
# [2] = tested on: Colletotrichum orbiculare ATC20767 (Cgm); assay: Control of Colletotrichum orbiculare on Nicotiana benthamiana, film-forming formulations applied 48 h before inoculation; assay type: in vivo; details: host Nicotiana benthamiana, PVOH 89 kDa, >99% hydrolysis
# Protocol: Control of the fungal plant pathogen Colletotrichum orbiculare ATC20767 (Cgm) on the host plant Nicotiana benthamiana following treatment with formulations containing Magnesium chlorophyllin, sodium salt with hydrogel polymer, polyvinylalcohol 89 kDa (99%+hydrolysis) and phenolic antioxidant vanillin were assessed. Treatments were applied to N. benthamiana plants approximately 48 h prior to inoculation to simulate photodegradation on a leaf surface. Subsequently, with a spore suspension of Cgm was applied to the leaves. Plants were then exposed to light for a 24-hour period followed by dark incubation until disease symptoms were evident on the water-treated control plants. Once disease symptoms were evident, lesions were counted, and leaf area measured in order to determine the number of lesions/cm^2 leaf area. Four replicate plants were used per treatment and plants were randomized under the light source. […]
# Control of the fungal plant pathogen Colletotrichum orbiculare ATC20767 (Cgm) on the host plant Nicotiana benthamiana following treatment with formulations containing Magnesium chlorophyllin, sodium salt with hydrogel polymer, polyvinylalcohol 89 kDa (99%+hydrolysis) and phenolic antioxidant tannic acid were assessed. […] Once disease symptoms were evident, lesions were counted, and leaf area measured in order to determine the number of lesions/cm^2 leaf area. […]
# [3] = Method B: photostability in solution (liquid state) under LED light; assay type: physicochemical
# Protocol: Fifty microlitres of each formulation was pipetted into 12 wells of a 96-well clear-bottom black microplate (Thomas Scientific, Swedesboro, N.J.), followed by the addition of 50 μL dH2O. The sample was sealed with a microplate clear adhesive film to minimize water evaporation. At the beginning of experiment, the microplate was placed under a Heliospectra RX30 LED light array (Heliospectra, San […], Calif.). The LED array was adjusted such that the microplates received on average 1300 μmol/m^2/s of light intensity. […] The % photosensitizer remaining after irradiation was calculated using the following equation: [formula] where Abst is the absorbance peak of the sample receiving t hours of light exposure; Abs0 is the absorbance peak of the sample receiving no light exposure. All data is expressed as mean±standard deviation.
# [4] = Method A: photostability in a non-hydrated state (solid state), dried films under LED light; assay type: physicochemical
# Protocol: Fifty microlitres of each formulation was pipetted into 12 wells of a 96-well clear-bottom black microplate (Thomas Scientific, Swedesboro, N.J.) and dried into thin films using a dehydrator (Gourmia GFD1680) at a temperature of 45° C. for 3 h. At the beginning of the experiment, the microplate was placed under a Heliospectra RX30 LED light array (Heliospectra, San […], Calif.). The LED array was adjusted such that the microplates received on average 1300 μmol/m^2/s of light intensity. The microplate was tightly covered with aluminum foil and at select intervals peeled back to irradiate films with either 0 h, 24 h, 48 h or 72 h of light. […] An absorbance spectral scan was conducted on the microplate (350-750 nm) using a plate reader (Spectramax M2E, Molecular Devices, San Jose, Calif.) and the peak intensity was monitored at 24 h, 48 h and/or 72 h timepoints and compared with the corresponding 0 h timepoint to determine the degree of photodegradation. The % photosensitizer remaining after irradiation was calculated using the following equation: [formula] where Abst is the absorbance peak of the sample receiving t hours of light exposure; Abs0 is the absorbance peak of the sample receiving no light exposure. All data is expressed as mean±standard deviation.
# [5] = tested on: Pseudomonas syringae v. tabacii; assay: Inhibition of P. syringae in host plant N. benthamiana by film-forming compositions; assay type: in vivo; details: host Nicotiana benthamiana, PVOH 89 kDa, >99% hydrolysis
# Protocol: Two days prior to inoculation, chemical treatments were applied to N. benthamiana plants at the 5-6 leaf stage until run off using a handheld spray bottle delivering a fine spray. Plants sprayed with water were used for Control. Immediately after treatment, plants were randomly placed on a shelf and exposed to LED lights emitting approximately 450 μmol/m2/s photo-synthetically active radiation (PAR) for a 12 h light/12 h dark photoperiod. For inoculation, Pst from a glycerol stock was cultured on Tryptic Soy Agar (TSA) and incubated overnight at 30° C. Bacterial cells were collected from the overnight culture, suspended in de-ionized water and diluted to 1×10^8 CFU/ml followed by the addition of 0.02% (v/v) Silwet L-77. Inoculum was then applied to plants until runoff and the plants covered with transparent plastic domes to maintain 100% relative humidity.
# Inoculated plants were randomly placed on a shelf in the Growth room which was maintained at 24° C., and were exposed to a combination of fluorescent and LED lights emitting approximately 250 μmol/m^2/s PAR for an 16 h light/8 h dark photoperiod for 7 days. Entire plants were assessed for disease severity using rating scale of 0-100%. Disease symptoms included yellow lesions, discoloration on foliage, leaf deformation and stunted growth. Four replications per treatment were used in the experiment.
# [6] = Thermal stability of MgChln, 2 weeks at 54° C.; assay type: physicochemical; details: in dH2O, wrapped in aluminum foil, mean ± SD
# Protocol: These samples were wrapped in aluminum foil and stored in a 54° C. oven for a period of 2 weeks. After the 2-week period, the samples were taken out of the 54° C. oven or -20° C. freezer and assayed using the UV-Visible plate reader (Spectramax M2E, Molecular Devices, San Jose, Calif.) with 12 technical replicates per sample. The degradation of […] as a result of storage at elevated temperature was determined by calculating the % photosensitizer remaining using the following equation: [formula] where Abst is the absorbance peak of the sample after incubation for 2 weeks at 54° C.; Abs0 is the absorbance peak of the sample at the start of experiment without being stored at 54° C. All data is expressed as mean±standard deviation.
# [7] = 1 h, read-out: Inhibition, % (Light)
compound,measurement,setting,value
C=Cc1c(C)c2cc3nc(c(CC(=O)NCCOP(=O)(O)O)c4[nH]c(cc5nc(cc1[nH]2)C(C)=C5CC)c(C)c4C(=O)O)C(CCC(=O)O)C3C (stereo not shown) [Ce6-mono-EP^15 amide octylammonium salt],inhibition at 10 µM,[1]; [7],58%
same,inhibition at 100 µM,[1]; [7],71%
same,inhibition at 10 µM,"[1]; read-out: Inhibition, % (Dark)",3%
same,inhibition at 100 µM,"[1]; read-out: Inhibition, % (Dark)",-5%
"C=CC1=C(C)C2=CC3=NC(=C(CC(=O)[O-])C4=NC(=C(C)C4=C([O-])[O-])C=c4[n-]c(c(C)c4CC)=CC1=N2)C(CCC(=O)[O-])C3C.[H+].[H+].[H+].[Mg+2] (stereo not shown) [MgChln, Magnesium chlorin e6]",% inhibition,[2]; applied about 48 h prior to inoculation,76%
same,% Disease inhibition,[2]; sprayed films irradiated 48 h prior to inoculation with fungal spores,95.1%
same,% photosensitizer remaining at 6 h (liquid state),"[3]; MgChln, PVOH 89 kDa, >99% hydrolysis, tannic acid, adjuvants, 6 h simulated light",31.5 ± 5.3%
same,% photosensitizer remaining at 6 h (liquid state),"[3]; MgChln, PVOH 89 kDa, >99% hydrolysis, various antioxidants, 6 h simulated light",20.6 ± 3.9%
same,% photosensitizer remaining at 6 h (liquid state),"[3]; MgChln, PVOH 146 kDa, >99% hydrolysis, 6 h simulated sunlight, mean ± SD",35.2 ± 2.1%
same,% photosensitizer remaining at 6 h (liquid state),"[3]; MgChln, PVOH of varied molecular weight and degree of hydrolysis, 6 h simulated sunlight, mean ± SD",44.6 ± 9.6%
same,% photosensitizer remaining at 6 h (liquid state),"[3]; MgChln, various film-forming polymers and tannic acid, 6 h",27.5 ± 1.8%
same,% photosensitizer remaining at 72 h (solid state),"[4]; MgChln, PVOH 89 kDa, >99% hydrolysis, tannic acid, adjuvants, 72 h simulated sunlight",41.2 ± 2.9%
same,% photosensitizer remaining at 72 h (solid state),"[4]; MgChln, PVOH 89 kDa, >99% hydrolysis, various antioxidants, 72 h simulated sunlight",31.6 ± 2.3%
same,% photosensitizer remaining at 72 h (solid state),"[4]; MgChln, PVOH 89 kDa, >99% hydrolysis, dried film, 72 h light irradiation, mean ± SD",46.0 ± 1.8%
same,% photosensitizer remaining at 72 h (solid state),"[4]; MgChln, PVOH 146 kDa, >99% hydrolysis, 72 h simulated sunlight, mean ± SD",29.1 ± 2%
same,% photosensitizer remaining at 72 h (solid state),"[4]; MgChln, PVOH of varied molecular weight and degree of hydrolysis, 72 h simulated sunlight, mean ± SD",45.2 ± 7.1%
same,% photosensitizer remaining at 72 h (solid state),"[4]; MgChln, various film-forming polymers and tannic acid, 72 h simulated sunlight",42.4 ± 2.5%
same,% Disease inhibition,[5]; relative to water control,45.3%
same,"Disease severity, % Mean","[5]; sprayed two days prior to inoculation, rated 7 days after, scale 0-100%, control 80",43.8%
same,% Photosensitizer remaining,[6],62 ± 7%
Aluminum chlorin e6 [Aluminum Ce6Na3],% photosensitizer remaining at 6 h (liquid state),"[3]; various tetrapyrroles, PVOH 89 kDa, >99% hydrolysis and tannic acid, 6 h simulated light",3.9 ± 0.2%
same,% photosensitizer remaining at 72 h (solid state),"[4]; various tetrapyrroles, PVOH 89 kDa, >99% hydrolysis and tannic acid, 72 h simulated sunlight",91.4 ± 5.5%

# From US20230128730A1, “OXYGEN IMPERMEABLE PORPHYRIN PHOTOSENSITIZER FILM COMPOSITION FOR APPLICATION TO PLANTS” (SUNCOR ENERGY INC., priority 2020, published 2023)
